We go through 15 molecules from patent US8633315B2, “Substituted hydroxyethyl amine compounds as beta-secretase modulators and methods of use” (Amgen Inc., priority 2007, dated 2014).

Read-outs that look alike come from different tables or passages of the source.

The target of one data set is BACE1 (Homo sapiens, UniProt P56817). The experiment in a line: In vitro enzymatic BACE FRET (fluorescence resonance energy transfer) assay. In kind it is biochemical. In outline: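 Cleavage of a quenched peptide FRET substrate (50 nM) in 0.05 M acetate pH 4.2, 10% DMSO, 100 uM genapol, 1 h incubation. Reaction stopped by Tris neutralization; fluorescence read at excitation 488 nm / […].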

In data set [1] the test system is Cells stably expressing Amyloid Precursor Protein (APP). The experiment in a line: In vitro BACE cell-based assay (HEK cell assay): Aβ40 in conditioned medium by sandwich ELISA. Particulars: Homo sapiens. In outline: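 APP-stably-expressing cells were grown 24 h in DMEM/10% FBS, then treated for 24 h with 10-point doses starting at 100 μM or 10 μM, at 0.1% DMSO final. Aβ40 in conditioned medium was measured by sandwich ELISA (pAb40 capture, biotinylated 6E10 detection, europium time-resolved fluorescence); IC50 from percent inhibition.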
On the technique in general: ELISA stands for enzyme-linked immunosorbent assay.

Another data set concerns Abeta peptide. As to the kind of experiment: In vivo inhibition of beta-secretase: Abeta peptide in CSF and brain after oral dosing. To be noted: orally dosed at about 30 mg/kg; for inhibition in vivo at 30 mg/kg: Rattus norvegicus, po, CSF, read-out: reduction of Abeta peptide in the CSF of the rat. From the text:
In Vivo Inhibition of Beta-Secretase
Several animal models, including mouse, rat, dog, and monkey, may be used to screen for inhibition of beta-secretase activity in vivo following administration of a test compound sample. Animals used in this invention can be wild type, transgenic, or gene knockout animals. For example, the Tg2576 mouse model, prepared and conducted as described in Hsiao et al., 1996, Science 274, 99-102, and other non-transgenic or gene knockout animals are useful to analyze in vivo inhibition of Amyloid beta peptide (Abeta) production in the presence of inhibitory test compounds. Generally, 2 to 18 month old Tg2576 mice, gene knockout mice or non-transgenic animals are administered test compounds formulated in vehicles, such as cyclodextran, phosphate buffers, hydroxypropyl methylcellulose or other suitable vehicles. […] A separate group of animals receive 2% hydroxypropyl methylcellulose, 1% Tween80 alone, containing no test compound, and serve as a vehicle-control group. At the end of the test period, animals are sacrificed and brain tissues, plasma or cerebrospinal fluid are collected. Brains are either homogenized in 10 volumes (w/v) of 0.2% diethylamine (DEA) in 50 mM NaCl (Best et al., 2005, Journal of Pharmacology and Experimental Therapeutics, 313, 902-908), or in 10 volumes of 0.5% TritonX-100 in Tris-buffered saline (pH at about 7.6). Homogenates are centrifuged at 355,000 g, 4° C. for 30 minutes. CSF or brain supernatants are then analyzed for the presence of Abeta peptide by specific sandwich ELISA assays based on ECL (Electrochemiluminescence) technology. For example, rat Abeta40 is measured using biotinylated-4G8 (Signet) as a capture antibody and Fab40 (an in-house antibody specific to the C-terminal of Abeta40) as a detection antibody. For example, 4 hours after administration of 30 mg/kg oral dose of the test compound in 2% hydroxypropyl methylcellulose, 1% Tween80 (pH2.2) to 200 g male Sprague Dawley rats, Abeta peptide levels are measured for reduction by X % and Y % in cerebrospinal fluid and brain, respectively, when compared to the levels measured in the vehicle-treated or control […].
Actual vehicles used: Oral: 2% HPMC, 1% Tween80, pH 2.2
• IV: 5% EtOH, 45% Propylene glycol in 5% Dextrose

For another data set, the target named is CYP3A4 (CYP3A) (Homo sapiens, UniProt P08684). As to the kind of experiment: CYP3A inhibition assay (midazolam, pooled human liver microsomes). To be noted: human, pooled human liver microsomes, pH 7.4, probe midazolam (printed as about […]); read-out: 3A4 IC50. In kind it is in vitro ADME. (Microsomes from liver hold many membrane-bound enzymes, among them those of drug oxidation.)

A short description of data set [2]: Microsomal stability assay, human liver microsomes. In kind it is in vitro ADME. From the text:
(§1) Microsomal Stability Assay

A short description of data set [3]: Microsomal stability assay, rat liver microsomes. It is filed as in vitro ADME.
Source text: as §1

The mark [4] stands for this setting: HEK293, 24 h, Aβ40 in conditioned medium after 24 h incubation.

Chain of BACE1 (P56817 46-501, species assumed): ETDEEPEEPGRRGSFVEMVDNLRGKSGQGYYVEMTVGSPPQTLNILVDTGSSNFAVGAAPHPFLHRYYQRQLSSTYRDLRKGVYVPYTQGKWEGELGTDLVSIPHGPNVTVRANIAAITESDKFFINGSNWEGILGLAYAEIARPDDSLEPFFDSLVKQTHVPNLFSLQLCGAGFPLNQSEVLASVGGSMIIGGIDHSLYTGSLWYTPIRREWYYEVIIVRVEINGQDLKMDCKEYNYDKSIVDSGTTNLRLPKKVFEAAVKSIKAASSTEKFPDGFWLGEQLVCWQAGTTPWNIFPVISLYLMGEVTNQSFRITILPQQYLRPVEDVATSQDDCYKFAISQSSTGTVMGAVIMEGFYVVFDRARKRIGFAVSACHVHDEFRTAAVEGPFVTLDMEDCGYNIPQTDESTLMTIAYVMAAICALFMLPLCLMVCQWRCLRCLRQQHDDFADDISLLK
Chain of CYP3A4 (CYP3A) (P08684 2-503): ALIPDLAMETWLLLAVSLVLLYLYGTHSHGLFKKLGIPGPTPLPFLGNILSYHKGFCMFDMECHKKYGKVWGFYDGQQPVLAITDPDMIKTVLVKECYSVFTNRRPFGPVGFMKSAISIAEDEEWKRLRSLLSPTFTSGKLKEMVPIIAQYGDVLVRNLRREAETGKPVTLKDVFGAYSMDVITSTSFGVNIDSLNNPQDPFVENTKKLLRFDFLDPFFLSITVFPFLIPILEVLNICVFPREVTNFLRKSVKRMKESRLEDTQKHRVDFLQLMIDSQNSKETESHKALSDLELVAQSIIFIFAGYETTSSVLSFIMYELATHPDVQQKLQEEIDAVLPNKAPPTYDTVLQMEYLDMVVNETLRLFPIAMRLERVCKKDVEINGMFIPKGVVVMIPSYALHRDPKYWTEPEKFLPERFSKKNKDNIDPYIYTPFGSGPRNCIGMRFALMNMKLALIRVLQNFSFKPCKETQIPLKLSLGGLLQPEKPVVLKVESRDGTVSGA

For `C=CC[C@H](NC(C)=O)[C@H](O)CN[C@H]1CC2(CCC2)Oc2c1cc(CC(C)(C)C)nc2NC` [Example 44, N-((1S)-1-((1R)-2-(((4′S)-6′-(2,2-dimethylpropyl)-8′-(methylamino)-3′,4′-dihydrospiro[cyclobutane-1,2′-pyrano[2,3-c]pyridin]-4′-yl)amino)-1-hydroxyethyl)-3-buten-1-yl)acetamide], the IC50 came to 65 nM at BACE1 and 20 nM in data set [1] (setting [4]). For the same molecule, the inhibition in vivo at 30 mg/kg in the data set with Abeta peptide was not below 5%.

Regarding `C=CC[C@H](NC(=O)COC)[C@H](O)CN[C@H]1CC2(CCC2)Oc2c1cc(CC(C)(C)C)nc2NC` [Example 47, N-((1S)-1-((1R)-2-(((4′S)-6′-(2,2-dimethylpropyl)-8′-(methylamino)-3′,4′-dihydrospiro[cyclobutane-1,2′-pyrano[2,3-c]pyridin]-4′-yl)amino)-1-hydroxyethyl)-3-buten-1-yl)-2-(methyloxy)acetamide], the IC50 on BACE1 worked out at 164 nM; in data set [1] (setting [4]), 38 nM. The “reduction of Abeta peptide in the brain of the rat” value with Abeta peptide (brain) is approximately 25%.

In the case of `CC#CC[C@H](NC(=O)[C@@H](C)OC)[C@H](O)CN[C@H]1CC2(CCC2)Oc2ncc(CC(C)(C)C)cc21` [Example 87, (2R)-N-((1S)-1-((1R)-2-(((4′S)-6′-(2,2-dimethylpropyl)-3′,4′-dihydrospiro[cyclobutane-1,2′-pyrano[2,3-b]pyridin]-4′-yl)amino)-1-hydroxyethyl)-3-pentyn-1-yl)-2-(methyloxy)propanamide], the results for the IC50 (at BACE1; in data set [1] (setting [4])) were 109 nM and 185 nM, respectively. The inhibition in vivo at 30 mg/kg in the data set on Abeta peptide was not below 5%.

In the case of `CC#CCC(NC(=O)C1CCC(=O)O1)C(O)CNC1CC2(CCC2)Oc2ncc(CC(C)(C)C)cc21` [Example 88, (S)-N((2R,3S)-1((S)-2,2-spirocyclobutane-6-neopentyl-3′,4′-dihydro-2H-pyrano[2,3-b]pyridin]-4′-ylamino)-2-hydroxyhept-5-yn-3-yl)-5-oxo-tetrahydrofuran-2-carboxamide.], the IC50 at BACE1 stood at 20 nM; in data set [1] (setting [4]) it was 72 nM. Besides, the inhibition in vivo at 30 mg/kg with Abeta peptide was not below 5%.

With `CC#CC[C@H](NC(=O)COC)[C@H](O)CN[C@H]1CC2(CCC2)Oc2ncc(CC(C)(C)C)cc21` [Example 89, N-((1S)-1-((1R)-2-(((4′S)-6′-(2,2-dimethylpropyl)-3′,4′-dihydrospiro[cyclobutane-1,2′-pyrano[2,3-b]pyridin]-4′-yl)amino)-1-hydroxyethyl)-3-pentyn-1-yl)-2-(methyloxy)acetamide], the IC50 on BACE1 turned out to be 71 nM; in data set [1] (setting [4]) it was 132 nM. In the data set on Abeta peptide, the inhibition in vivo at 30 mg/kg is not below 5%.

Regarding `C=CC[C@H](NC(=O)CF)[C@H](O)CN[C@H]1CC2(CCC2)Oc2ncc(CC(C)(C)C)cc21` [Example 90, N-((1S)-1-((1R)-2-(((4′S)-6′-(2,2-dimethylpropyl)-3′,4′-dihydrospiro[cyclobutane-1,2′-pyrano[2,3-b]pyridin]-4′-yl)amino)-1-hydroxyethyl)-3-buten-1-yl)-2-fluoroacetamide], on BACE1, the IC50 is 68 nM. The inhibition in vivo at 30 mg/kg in the data set with Abeta peptide was not below 5%.

Regarding `C=CC[C@H](NC(=O)CCOC)[C@H](O)CN[C@H]1CC2(CCC2)Oc2ncc(CC(C)(C)C)cc21` [Example 91, N-((1S)-1-((1R)-2-(((4′S)-6′-(2,2-dimethylpropyl)-3′,4′-dihydrospiro[cyclobutane-1,2′-pyrano[2,3-b]pyridin]-4′-yl)amino)-1-hydroxyethyl)-3-buten-1-yl)-3-(methyloxy)propanamide], the IC50 at BACE1 was found to be 68 nM. Further, the inhibition in vivo at 30 mg/kg with Abeta peptide was not below 5%.

With `C=CC[C@H](NC(=O)COC)[C@H](O)CN[C@H]1CC2(CCC2)Oc2c1cc(CC(C)(C)C)nc2-c1nccn1C` [compound 237, N-((1S)-1-((1R)-2-(((4′S)-6′-(2,2-dimethylpropyl)-8′-(1-methyl-1H-imidazol-2-yl)-3′,4′-dihydrospiro[cyclobutane-1,2′-pyrano[2,3-c]pyridin]-4′-yl)amino)-1-hydroxyethyl)-3-buten-1-yl)-2-methoxyacetamide], the figures for the IC50 (on BACE1 (read-out: BACE 1 FRET assay); in data set [1] (HEK293)) were 1230 nM and 385 nM, respectively. For the same molecule, at CYP3A4 (CYP3A), the IC50 at 10 min was 160 nM. For the same molecule, the HLM in data set [2] was determined as 58 µL/min/mg. The RLM in data set [3] worked out at 64 µL/min/mg.

As for `C=CC[C@H](NC(=O)COC)[C@H](O)CN[C@H]1CC2(CCC2)Oc2c1cc(CC(C)(C)C)nc2-c1cncn1C` [compound 238, N-((1S)-1-((1R)-2-(((4′S)-6′-(2,2-dimethylpropyl)-8′-(1-methyl-1H-imidazol-5-yl)-3′,4′-dihydrospiro[cyclobutane-1,2′-pyrano[2,3-c]pyridin]-4′-yl)amino)-1-hydroxyethyl)-3-buten-1-yl)-2-methoxyacetamide], the figures for the IC50 (on BACE1 (read-out: BACE 1 FRET assay); in data set [1] (HEK293)) were 946 nM and 149 nM, respectively. Also, at CYP3A4 (CYP3A), the IC50 at 10 min was found to be 160 nM. Also, in data set [2], the HLM is 58 µL/min/mg. In data set [3], this molecule yielded an RLM of 68 µL/min/mg.

In the case of `C=CC[C@H](NC(=O)COC)[C@H](O)CN[C@H]1CC2(CCC2)Oc2c1cc(CC(C)(C)C)nc2Nc1cccnc1` [compound 240], the figures for the IC50 (on BACE1 (read-out: BACE 1 FRET assay); in data set [1] (HEK293)) were 268 nM and 345 nM, respectively. Besides, the IC50 at 10 min on CYP3A4 (CYP3A) worked out at 500 nM. For the same molecule, in data set [2], the HLM amounted to 551 µL/min/mg. In addition, the RLM in data set [3] was found to be 152 µL/min/mg.

Regarding `CCOC[C@H](NC(C)=O)[C@@H](O)CN[C@H]1CC2(CCC2)Oc2ncc(CC(C)(C)C)cc21` [compound 241], the IC50 on BACE1 (read-out: BACE 1 FRET assay) worked out at 2720 nM; in data set [1] (HEK293), 93 nM. The IC50 at 10 min on CYP3A4 (CYP3A) was determined as 3700 nM. In data set [2], the HLM came out at 84 µL/min/mg. The molecule also displayed an RLM in data set [3] of 45 µL/min/mg.

As to `C=CC[C@H](NC(=O)C1COC(c2cccnc2)O1)[C@H](O)CN[C@H]1CC2(CCC2)Oc2ncc(CC(C)(C)C)cc21` (stereo partly drawn) [compound 243, N-((1S)-1-((1R)-2-(((4′S)-6′-(2,2-dimethylpropyl)-3′,4′-dihydrospiro[cyclobutane-1,2′-pyrano[2,3-b]pyridin]-4′-yl)amino)-1-hydroxyethyl)-3-buten-1-yl)-2-(3-pyridinyl)-1,3-dioxolane-4-carboxamide], the IC50 came to 2160 nM on BACE1 (read-out: BACE 1 FRET assay) and 982 nM in data set [1] (HEK293). Besides, the IC50 at 10 min on CYP3A4 (CYP3A) was 300 nM. In data set [2], this molecule gave an HLM of 601 µL/min/mg. Also, the RLM in data set [3] is 173 µL/min/mg.

On to `C=CC[C@H](NC(=O)COCC)[C@H](O)CN[C@H]1CC2(CCC2)Oc2ncc(CC(C)(C)C)cc21` [compound 244], for which the values for the IC50 (at BACE1 (read-out: BACE 1 FRET assay); in data set [1] (HEK293)) were 2450 nM and 3170 nM, respectively. The IC50 at 10 min at CYP3A4 (CYP3A) is 1300 nM. In data set [2], this molecule yielded an HLM of 543 µL/min/mg. In addition, the RLM in data set [3] worked out at 176 µL/min/mg.

Turning to `C=CC[C@H](NC(=O)CCC(C)(C)C)[C@H](O)CN[C@H]1CC2(CCC2)Oc2ncc(CC(C)(C)C)cc21` [compound 245], the IC50 was determined as 9250 nM on BACE1 (read-out: BACE 1 FRET assay) and 10000 nM in data set [1] (HEK293). The IC50 at 10 min on CYP3A4 (CYP3A) came out at 300 nM. Moreover, the HLM in data set [2] turned out to be 829 µL/min/mg. In data set [3], this molecule registered an RLM of 459 µL/min/mg.

Turning to `C=CC[C@H](NC(=O)[C@@H]1CN(Cc2nccs2)CCO1)[C@H](O)CN[C@H]1CC2(CCC2)Oc2ncc(CC(C)(C)C)cc21` [compound 246, (2S)-N-((1S)-1-((1R)-2-(((4′S)-6′-(2,2-dimethylpropyl)-3′,4′-dihydrospiro[cyclobutane-1,2′-pyrano[2,3-b]pyridin]-4′-yl)amino)-1-hydroxyethyl)-3-buten-1-yl)-4-(1,3-thiazol-2-ylmethyl)-2-morpholinecarboxamide], the IC50 on BACE1 (read-out: BACE 1 FRET assay) was found to be 128 nM; in data set [1] (HEK293) it was 116 nM. In addition, the IC50 at 10 min on CYP3A4 (CYP3A) worked out at 700 nM. For the same molecule, in data set [2], the HLM turned out to be 736 µL/min/mg. Also, in data set [3], the RLM was 335 µL/min/mg.
